d = 2'-deoxy (DNA); r = 2'-OH (RNA)
Tests used:
KH OS and U-2 OS cells = assay: DXR effects in OS cells (TUNEL, protein expression); type: cell-based, human
Procedure: Sustained silencing of CLU gene expression in OS cells by siRNA results in significant sensitization to apoptosis induced by genotoxic and oxidative stress. Prior to CLU functional assays, we analyzed the DXR effects in OS cells since the drug-related reported effects vary in different cell-types (Gewritz et al., Biochem. Pharmacol. 57: 727-741 (1999)). As the DXR plasma concentration in treated patients fall into a range of 1-2 μM and decline into a range of 0.025-0.25 μM within 1 h (Muller et al, Cancer Chemother. Pharmacol., 32: 379-384 (1993)) cells were treated with 0.35 and 1 μM of DXR. To analyze the extent of the DXR-mediated cell death we scored apoptosis by TUNEL. Attached cells following drug treatment for 24 h underwent significant morphological changes as compared to non-treated control cells. […] On-going apoptosis is also apparent 24 h later, verifying that apoptosis is a dynamic process that continues even after DXR removal from the medium.

[1] = human, in vivo; cited from earlier work
clusterin [2] = assay: Clusterin Western blot in PC3 cells; type: cell-based, human; conditions: 10, 50 and 100 nM
Procedure: 8 species of siRNA targeting clusterin were formed as double-stranded RNA from Seq. ID NOs. 1 and 2, 3 and 4, 5 and 6, 7 and 8, 9 and 10, 11 and 12, 13 and 14, and 15 and 16, and labeled as CLU1-CLU 8, respectively. PC3 cells were transfected with various doses (10, 50 and 100 nM) of the 8 species of siRNA or scrambled control. Three days after treatment, proteins were extracted and analyzed by Western blotting for clusterin levels (MW=40 and 60 kDa).
Densitometric measurements were performed after normalization to a vinculin control the blots for cells treated with CLU-5 (Seq ID Nos. 9 and 10). “Oligo” cells were treated with oligoFECTAMINE™ only.

clusterin [3] = assay: Clusterin Western blot in A549 cells; type: cell-based, human; conditions: 10, 50 and 100 nM
clusterin transcript [4] = assay: Clusterin transcript by Real Time PCR in PC3 cells; type: cell-based, human; conditions: 10, 50 or 100 nM, two days
Procedure: (§1) PC3 cells were transfected with siRNA at levels of 10, 50 or 100 nM or with 100 nM scrambled control. Two days after transfection, total RNA was extracted and the level of clusterin transcript was quantified by Real Time PCR.

clusterin transcript [5] = assay: Clusterin transcript by Real Time PCR in A549 cells; type: cell-based, human; conditions: 10, 50 or 100 nM, two days
Procedure: as §1
The experiment of Example 9 was repeated using A549 cells in place of PC3 cells.

clusterin transcript [6] = assay: Clusterin transcript by Northern blot in PC3 cells; type: cell-based, human; conditions: all doses (10, 50 or 100 nM), two days
Procedure: PC3 cells were treated (1 pulse) with CLU-3 (Seq ID NOs. 5 and 6) or CLU-5 (Seq ID Nos 9 and 10) or with a scrambled control at levels of 10, 50 or 100 nM, or with oligoFECTAMINE™ only. After two days total RNA was extracted and analyzed for clusterin and GADPH by Northern blotting. Densitometric measurement was performed. FIG. 10 presents results of these measurements after normalization to GADPH.

PC3 cells = assay: PC3 cell viability with siRNA and Taxol, MTT assay; type: cell-based, human; conditions: 25 nM siRNA, then Taxol three days
Procedure: PC3 cells were treated once with 25 nM human clusterin siRNAs (CLU-3 and CLU-5), a scrambled control, or oligoFECTAMINE™ only. After two days of treatment, the medium was replaced with medium containing various concentrations of Taxol (Paclitaxel). After three days of incubation, cell viability was determined by MTT assay. FIG. 11 summarizes the results.

clusterin transcript [7] = assay: Clusterin mRNA by Northern blot in OVCAR3 cells; type: cell-based, human; conditions: 1, 10 or 50 nM, two days
Procedure: OVCAR3 ovarian cancer cells were treated once with 1, 10 or 50 nM CLU5, scrambled control or a vehicle only control. An untreated control was also run. After two days, total RNA was extracted and analyzed for clusterin and GAPDH mRNA by Northern blot.

clusterin transcript [8] = assay: Clusterin mRNA by Northern blot in MDA-MB 231 cells; type: cell-based, human; conditions: 5, 50 or 100 nM, two days
Procedure: MDA-MB 231 human breast cancer cells were transfected with 5, 50 or 100 nM CLU-5 or a scrambled control, or with oligoFECTAMINE™ vehicle alone. Two days after transfection, RNA was extracted and analyzed for clusterin and GAPDH by Northern blotting.

clusterin transcript [9] = assay: Clusterin mRNA by Northern blot in MCF-7 cells; type: cell-based, human; conditions: 5, 25 or 50 nM, two days
Procedure: MCF-7 human breast cancer cells were transfected with 5, 25 or 50 nM CLU-5 or a scrambled control, or with oligoFECTAMINE™ vehicle alone. Two days after transfection, RNA was extracted and analyzed for clusterin and GAPDH by Northern blotting.

clusterin [10] = assay: Clusterin Western blot in MCF-7 cells; type: cell-based, human; conditions: 5 and 50 nM, three days
Procedure: MCF-7 cells were transfected with various doses (5 and 50 nM) of CLU-5 siRNA or scrambled control. Three days after treatment, proteins were extracted and analyzed by Western blotting for clusterin levels (MW=40 and 60 kDa).

clusterin [11] = assay: Clusterin Western blot in clusterin overexpressing LNCaP/T1 cells; type: cell-based, human; conditions: 10 nM, 1 pulse, three days
Procedure: Clusterin overexpressing LNCaP)/T1 cells were transfected (1 pulse) with 10 nM CLU-5 siRNA or scrambled control. Three days after treatment, the proteins were extracted and analyzed by Western blotting for clusterin.

| Compound | bcl-2 expression (KH OS and U-2 OS cells; KH OS and U-2 OS cells) | accumulation of p53, p21 and bax (KH OS and U-2 OS cells; OS cell lines) | PARP cleavage (KH OS and U-2 OS cells; OS cells after DXR treatment) | apoptosis by TUNEL (KH OS and U-2 OS cells; OS cells, 0.35 and 1 μM DXR, 24 h) | plasma concentration [1] [nM] | clusterin by densitometry normalized to vinculin (clusterin [2]) | amount of clusterin (Western blot) (clusterin [2]; three days) | clusterin by densitometry normalized to vinculin (clusterin [3]) | amount of clusterin transcript (clusterin transcript [4]) | amount of clusterin transcript (clusterin transcript [5]) | amount of clusterin transcript normalized to GADPH (clusterin transcript [6]) | viable cells with siRNA plus Taxol (PC3 cells) | amount of clusterin transcript normalized to GAPDH (clusterin transcript [7]) | amount of clusterin transcript normalized to GAPDH (clusterin transcript [8]) | amount of clusterin transcript normalized to GAPDH (clusterin transcript [9]) | amount of clusterin protein relative to scrambled control (clusterin [10]) | clusterin detected by Western blot (clusterin [11]) |
| --- | --- | --- | --- | --- | --- | --- | --- | --- | --- | --- | --- | --- | --- | --- | --- | --- | --- |
| COc1cccc2c1C(=O)c1c(O)c3c(c(O)c1C2=O)C[C@@](O)(C(=O)CO)C[C@@H]3O[C@H]1C[C@H](N)[C@H](O)[C@H](C)O1 [DXR] | no altered expression | found only in U-2 OS cells | accompanied by PARP cleavage | a significant number of them are TUNEL positive | 1000 to 2000 |  |  |  |  |  |  |  |  |  |  |  |  |
| CLU-5: clusterin siRNA, double-stranded RNA from Seq. ID NOs. 9 and 10 (chain 1 AUGAUGAAGACUCUGCUGCTT; chain 2 GCAGCAGAGUCUUCAUCAUTT; sugars from the 5' end r19 d2, backbone not given here) |  |  |  |  |  | dose dependent response | best results | dose dependent response | reduction in the amount of clusterin transcript | reduction in the amount of clusterin transcript | Reduction in the amount of clusterin transcript | worked in synergy | Substantial dose dependent reduction | Substantial reduction | Substantial dose-dependent reduction | reduction in the amount of clusterin protein | No clusterin was detected |

— US8759308B2, “RNAi probes targeting cancer-related proteins” (The University of British Columbia, priority 2002, dated 2014)
